According to article PMC5884628 (International journal of biological macromolecules, 2016):

Key:
Pseudomonas aeruginosa = conditions: ref [26], [27], cited from earlier work
[1] = ref [26], [27]; cited from earlier work
[2] = system: null E. coli strain (pUC118/DK8); experiment: Growth of null E. coli in the presence of venom peptides; format: cell-based, Escherichia coli; conditions: null strain in comparison to wild-type
Staphylococcus aureus = conditions: ref [26], [27], cited from earlier work
[3] = system: human pathogenic bacteria; multi-drug resistant bacterial strains; conditions: broad spectrum of microbes; ref [26], [27]; cited from earlier work
[4] = system: burns and acute infections; conditions: ref [26], [27]; cited from earlier work
Escherichia coli = conditions: ref [26], [27]; cited from earlier work
[5] = system: wild-type membrane bound F1Fo ATP synthase; experiment: Inhibition of membrane bound F1Fo ATPase activity by venom peptides; format: biochemical, Escherichia coli; conditions: 60 min preincubation at RT, pH 8.0; Fig. 2
erythrocytes = conditions: ref [26], [27]; cited from earlier work
[6] = system: wild-type E. coli strain (pBWU13.4/DK8); experiment: Growth of wild-type E. coli in the presence of venom peptides; format: cell-based, Escherichia coli; conditions: wild-type in comparison to null strain
P. aeruginosa = conditions: rat models; ref [26], [27]; cited from earlier work
melanoma cell = conditions: ref [31]; cited from earlier work
E. coli ATP synthase = conditions: ref [18], [19]; cited from earlier work
E. coli = conditions: ref [18], [19]; cited from earlier work

| Substance | effectiveness against drug-resistant Pseudomonas aeruginosa (Pseudomonas aeruginosa; drug-resistant) | time to kill P. aeruginosa (Pseudomonas aeruginosa) | cytotoxic activity [1] | inhibition of null E. coli (in words) [2] | effectiveness against drug-resistant Staphylococcus aureus (Staphylococcus aureus; drug-resistant) | time to kill S. aureus (Staphylococcus aureus) | antimicrobial activity in comparison to gentamicin, ampicillin, or bacitracin [3] | effectiveness in burns and acute infections [4] | effectiveness against drug-resistant Escherichia coli (Escherichia coli) | inhibition of ATP synthase (in words) [5] | hemolytic activity (erythrocytes) | inhibition of wild-type E. coli (in words) [6] | P. aeruginosa colony formation (P. aeruginosa) | subsequent infection and inflammation (P. aeruginosa) | melanoma cell proliferation (melanoma cell) | inhibition of E. coli ATP synthase (E. coli ATP synthase) | E. coli growth (E. coli) |
| --- | --- | --- | --- | --- | --- | --- | --- | --- | --- | --- | --- | --- | --- | --- | --- | --- | --- |
| KFFRKLKKSVKKRAKEFFKKPRVIGVSIPF [BF-30] | effective | less than 120 minutes | no obvious hemolytic or cytotoxic activity | partial inhibition | effective | less than 120 minutes | stronger antimicrobial activity | effective | effective | strong inhibition of ATP synthase | no obvious hemolytic | potent inhibition | significantly reduced | prevented | selectively inhibit melanoma cell proliferation |  |  |
| melittin |  |  |  |  |  |  |  |  |  |  |  |  |  |  |  | potently inhibit | abrogation of E. coli growth |
